Biological target: T1, ΔF508-CFTR (Homo sapiens, UniProt P13569, DEL508-508)
T1 construct: expressed in transfected cells
Test: Membrane potential optical (FRET/VIPR) assay, identification of potentiator compounds
Assay type: cell-based
Conditions: Table 3, assay not given; for % Activity: relative efficacy
Procedure, shortened: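 NIH3T3 mouse fibroblasts stably expressing ΔF508-CFTR, temperature-corrected 24 h at 27° C., read on VIPR by FRET between CC2-DMPE and DiSBAC2(3). Potentiators identified in a double-addition format, first adding chloride-free (gluconate) medium with or without compound.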

T1 sequence (P13569 with tags, fused parts or gaps DEL508-508): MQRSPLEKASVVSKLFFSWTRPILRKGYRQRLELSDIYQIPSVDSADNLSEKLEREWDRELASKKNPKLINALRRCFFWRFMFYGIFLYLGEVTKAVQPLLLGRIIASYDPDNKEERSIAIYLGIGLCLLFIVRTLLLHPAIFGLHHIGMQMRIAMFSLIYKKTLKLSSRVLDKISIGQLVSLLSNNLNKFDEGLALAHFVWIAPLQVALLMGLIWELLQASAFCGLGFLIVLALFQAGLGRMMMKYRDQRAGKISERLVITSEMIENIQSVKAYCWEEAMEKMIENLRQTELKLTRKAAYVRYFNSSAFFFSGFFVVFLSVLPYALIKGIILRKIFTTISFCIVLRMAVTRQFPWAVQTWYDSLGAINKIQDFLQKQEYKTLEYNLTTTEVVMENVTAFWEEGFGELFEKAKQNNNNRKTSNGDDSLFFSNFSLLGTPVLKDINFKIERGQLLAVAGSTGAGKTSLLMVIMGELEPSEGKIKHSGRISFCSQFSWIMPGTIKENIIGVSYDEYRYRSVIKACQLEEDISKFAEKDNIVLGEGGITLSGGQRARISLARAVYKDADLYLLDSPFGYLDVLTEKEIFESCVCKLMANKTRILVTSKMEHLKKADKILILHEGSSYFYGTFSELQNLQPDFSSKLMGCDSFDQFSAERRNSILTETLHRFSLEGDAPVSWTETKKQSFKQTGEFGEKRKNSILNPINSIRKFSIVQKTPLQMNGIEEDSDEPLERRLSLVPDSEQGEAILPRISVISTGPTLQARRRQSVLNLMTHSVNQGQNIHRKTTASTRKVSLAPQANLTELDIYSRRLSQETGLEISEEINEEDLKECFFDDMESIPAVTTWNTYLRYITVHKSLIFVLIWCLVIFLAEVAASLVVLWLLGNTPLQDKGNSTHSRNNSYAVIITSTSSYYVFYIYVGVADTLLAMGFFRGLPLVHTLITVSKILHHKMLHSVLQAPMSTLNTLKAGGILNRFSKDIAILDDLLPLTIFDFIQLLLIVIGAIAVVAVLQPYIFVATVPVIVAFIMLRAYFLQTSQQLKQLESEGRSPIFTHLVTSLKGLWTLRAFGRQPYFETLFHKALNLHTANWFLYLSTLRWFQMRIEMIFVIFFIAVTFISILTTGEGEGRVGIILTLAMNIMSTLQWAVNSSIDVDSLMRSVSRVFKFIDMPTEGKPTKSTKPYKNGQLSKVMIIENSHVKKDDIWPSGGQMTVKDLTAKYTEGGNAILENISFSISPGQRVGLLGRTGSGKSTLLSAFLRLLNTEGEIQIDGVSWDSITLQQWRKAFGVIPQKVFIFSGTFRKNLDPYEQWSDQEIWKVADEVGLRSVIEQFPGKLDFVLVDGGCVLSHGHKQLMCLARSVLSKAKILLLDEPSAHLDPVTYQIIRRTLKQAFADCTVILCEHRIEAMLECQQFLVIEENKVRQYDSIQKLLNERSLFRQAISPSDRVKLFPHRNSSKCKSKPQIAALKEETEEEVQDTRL

Row | Structure (SMILES) | EC50 [µM] | % Activity
1 | O=C(Nc1ccc(C2CCCCC2)c(O)c1)c1c[nH]c2cccc(O)c2c1=O [Compound 522, N-(4-cyclohexyl-3-hydroxy-phenyl)-5-hydroxy-4-oxo-1H-quinoline-3-carboxamide] | < 10 | ++ (between 25% to 100%)
2 | CC1(c2ccc(NC(=O)c3c[nH]c4ccccc4c3=O)cc2)COC1 [Compound 523, N-[4-(3-methyloxetan-3-yl)phenyl]-4-oxo-1H-quinoline-3-carboxamide] | < 10 | ++ (between 25% to 100%)
3 | CCOc1ccc2[nH]cc(C(=O)Nc3cc(O)c(C(C)(C)C)cc3C(C)(C)C)c(=O)c2c1 [Compound 524, 6-ethoxy-N-(5-hydroxy-2,4-ditert-butyl-phenyl)-4-oxo-1H-quinoline-3-carboxamide] | < 10 | ++ (between 25% to 100%)
4 | CC(C)(C)c1cc(C(C)(C)C)c(NC(=O)c2c[nH]c3ccc(C#N)cc3c2=O)cc1O [Compound 525, 6-cyano-N-(5-hydroxy-2,4-ditert-butyl-phenyl)-4-oxo-1H-quinoline-3-carboxamide] | < 10 | + (<25%)
5 | CCOc1cccc2c(=O)c(C(=O)Nc3cc(O)c(C(C)(C)C)cc3F)c[nH]c12 [Compound 526, 8-ethoxy-N-(2-fluoro-5-hydroxy-4-tert-butyl-phenyl)-4-oxo-1H-quinoline-3-carboxamide] | 10 to 25 | + (<25%)
6 | CC(C)(C)c1ccc(NC(=O)c2c[nH]c3ccc(F)cc3c2=O)cc1F [Compound 527, 6-fluoro-N-(3-fluoro-4-tert-butyl-phenyl)-4-oxo-1H-quinoline-3-carboxamide] | < 10 | ++ (between 25% to 100%)
7 | Cc1cccc2[nH]cc(C(=O)Nc3ccc(N4CCC(F)(F)C4)cc3C(F)(F)F)c(=O)c12 [Compound 528, N-[4-(3,3-difluoropyrrolidin-1-yl)-2-(trifluoromethyl)phenyl]-5-methyl-4-oxo-1H-quinoline-3-carboxamide] | < 10 | ++ (between 25% to 100%)
8 | CC1(c2ccc(NC(=O)c3c[nH]c4cccc(O)c4c3=O)cc2)COC1 [Compound 529, 5-hydroxy-N-[4-(3-methyloxetan-3-yl)phenyl]-4-oxo-1H-quinoline-3-carboxamide] | < 10 | ++ (between 25% to 100%)
9 | COC(=O)[C@@H]1[C@@H](C)CCN1c1ccc(NC(=O)c2c[nH]c3ccccc3c2=O)c(C(F)(F)F)c1 [Compound 530, (2S,3S)-methyl 3-methyl-1-(4-(4-oxo-1,4-dihydroquinoline-3-carboxamido)-3-(trifluoromethyl)phenyl)pyrrolidine-2-carboxylate] | < 10 | ++ (between 25% to 100%)
10 | COC(=O)[C@@H]1[C@H]2C[C@H]2CN1c1ccc(NC(=O)c2c[nH]c3ccccc3c2=O)c(C(F)(F)F)c1 [Compound 531, (1S,2S,5R)-methyl 3-(4-(4-oxo-1,4-dihydroquinoline-3-carboxamido)-3-(trifluoromethyl)phenyl)-3-azabicyclo[3.1.0]hexane-2-carboxylate] | < 10 | ++ (between 25% to 100%)
11 | O=C(Nc1ccc(C(F)(F)F)cc1Cl)c1c[nH]c2ccccc2c1=O [Compound 532, N-[2-chloro-4-(trifluoromethyl)phenyl]-4-oxo-1H-quinoline-3-carboxamide] | < 10 | ++ (between 25% to 100%)
12 | COc1ccc2[nH]cc(C(=O)Nc3cc4[nH]ccc4cc3C(C)(C)C)c(=O)c2c1 [Compound 533, 6-methoxy-4-oxo-N-(5-tert-butyl-1H-indol-6-yl)-1H-quinoline-3-carboxamide] | < 10 | +++ (>100%)
13 | CN(C)[C@@H]1CCN(c2ccc(NC(=O)c3c[nH]c4ccccc4c3=O)c(C(F)(F)F)c2)C1 [Compound 534, (R)-N-(4-(3-(dimethylamino)pyrrolidin-1-yl)-2-(trifluoromethyl)phenyl)-4-oxo-1,4-dihydroquinoline-3-carboxamide] | < 10 | ++ (between 25% to 100%)
14 | CC(C)(C)c1c[nH]c2cc(NC(=O)c3c[nH]c4cccc(O)c4c3=O)ccc12 [Compound 535, 5-hydroxy-4-oxo-N-(3-tert-butyl-1H-indol-6-yl)-1H-quinoline-3-carboxamide] | < 10 | ++ (between 25% to 100%)
15 | CC1(C)CCN(c2ccc(NC(=O)c3c[nH]c4ccccc4c3=O)c(C(F)(F)F)c2)C1 [Compound 536, N-[4-(3,3-dimethylpyrrolidin-1-yl)-2-(trifluoromethyl)phenyl]-4-oxo-1H-quinoline-3-carboxamide] | < 10 | ++ (between 25% to 100%)
16 | O=C(Nc1ccc2cc(C(F)(F)F)[nH]c2c1)c1c[nH]c2ccccc2c1=O [Compound 537, 4-oxo-N-[2-(trifluoromethyl)-1H-indol-6-yl]-1H-quinoline-3-carboxamide] | < 10 | ++ (between 25% to 100%)

Row | Structure (SMILES) | EC50 [µM] | % Activity
17 | Cc1cc(OC(F)(F)F)ccc1NC(=O)c1c[nH]c2ccccc2c1=O [Compound 538, N-[2-methyl-4-(trifluoromethoxy)phenyl]-4-oxo-1H-quinoline-3-carboxamide] | < 10 | ++ (between 25% to 100%)
18 | Cc1cccc2[nH]cc(C(=O)Nc3ccc(N4[C@H](C)CC[C@H]4C)cc3C(F)(F)F)c(=O)c12 [Compound 539, N-(4-((2R,5R)-2,5-dimethylpyrrolidin-1-yl)-2-(trifluoromethyl)phenyl)-5-methyl-4-oxo-1,4-dihydroquinoline-3-carboxamide] | < 10 | ++ (between 25% to 100%)
19 | CC(C)(C)OC(=O)[C@H]1CCCN1c1ccc(NC(=O)c2c[nH]c3ccccc3c2=O)c(C(F)(F)F)c1 [Compound 540, (R)-tert-butyl 1-(4-(4-oxo-1,4-dihydroquinoline-3-carboxamido)-3-(trifluoromethyl)phenyl)pyrrolidine-2-carboxylate] | < 10 | +++ (>100%)
20 | Cc1cccc2[nH]cc(C(=O)Nc3ccc(N4CC[C@@H](F)C4)cc3C(F)(F)F)c(=O)c12 [Compound 541, (R)-N-(4-(3-fluoropyrrolidin-1-yl)-2-(trifluoromethyl)phenyl)-5-methyl-4-oxo-1,4-dihydroquinoline-3-carboxamide] | < 10 | ++ (between 25% to 100%)
21 | CNc1cccc2[nH]cc(C(=O)Nc3cc(O)c(C(C)(C)C)cc3C(C)(C)C)c(=O)c12 [Compound 542, N-(5-hydroxy-2,4-ditert-butyl-phenyl)-5-methylamino-4-oxo-1H-quinoline-3-carboxamide] | < 10 | +++ (>100%)
22 | CN(C)c1ccc2[nH]cc(C(=O)Nc3cc(O)c(C(C)(C)C)cc3C(C)(C)C)c(=O)c2c1 [Compound 544, 6-dimethylamino-N-(5-hydroxy-2,4-ditert-butyl-phenyl)-4-oxo-1H-quinoline-3-carboxamide] | < 10 | ++ (between 25% to 100%)
23 | O=C(Nc1ccc2c(C(F)(F)F)c[nH]c2c1)c1c[nH]c2ccccc2c1=O [Compound 545, 4-oxo-N-[3-(trifluoromethyl)-1H-indol-6-yl]-1H-quinoline-3-carboxamide] | < 10 | +++ (>100%)
24 | Cc1cccc2[nH]cc(C(=O)Nc3ccc(N4CCC(C)C4)cc3C(F)(F)F)c(=O)c12 (stereo not drawn) [Compound 546, 5-methyl-N-[4-(3-methylpyrrolidin-1-yl)-2-(trifluoromethyl)phenyl]-4-oxo-1H-quinoline-3-carboxamide] | < 10 | ++ (between 25% to 100%)
25 | Cc1cccc2[nH]cc(C(=O)Nc3ccc(OC(C)C)cc3C(F)(F)F)c(=O)c12 [Compound 547, N-[4-isopropoxy-2-(trifluoromethyl)phenyl]-5-methyl-4-oxo-1H-quinoline-3-carboxamide] | < 10 | +++ (>100%)
26 | CC(C)(C)c1cc(C(C)(C)C)c(NC(=O)c2c[nH]c3cc(C#N)ccc3c2=O)cc1O [Compound 548, 7-cyano-N-(5-hydroxy-2,4-ditert-butyl-phenyl)-4-oxo-1H-quinoline-3-carboxamide] | < 10 | ++ (between 25% to 100%)
27 | O=C(Nc1cccc(-c2cccs2)c1)c1c[nH]c2ccccc2c1=O [Compound 549, 4-oxo-N-[3-(2-thienyl)phenyl]-1H-quinoline-3-carboxamide] | < 10 | ++ (between 25% to 100%)
28 | COC(=O)[C@@H]1C[C@@H](OC(C)(C)C)CN1c1ccc(NC(=O)c2c[nH]c3ccccc3c2=O)c(C(F)(F)F)c1 [Compound 550, (2S,4R)-methyl 4-tert-butoxy-1-(4-(4-oxo-1,4-dihydroquinoline-3-carboxamido)-3-(trifluoromethyl)phenyl)pyrrolidine-2-carboxylate] | < 10 | ++ (between 25% to 100%)
29 | O=C(Nc1cc(O)c2ccccc2c1)c1c[nH]c2ccccc2c1=O [Compound 551, N-(4-hydroxy-2-naphthyl)-4-oxo-1H-quinoline-3-carboxamide] | – | ++ (between 25% to 100%)
30 | CC(C)(C)c1cc(C(C)(C)C)c(NC(=O)c2c[nH]c3ccc(Br)cc3c2=O)cc1O [Compound 553, 6-bromo-N-(5-hydroxy-2,4-ditert-butyl-phenyl)-4-oxo-1H-quinoline-3-carboxamide] | < 10 | ++ (between 25% to 100%)
31 | CC(C)(C)c1c[nH]c2cc(NC(=O)c3c[nH]c4ccc(F)cc4c3=O)ccc12 [Compound 554, 6-fluoro-4-oxo-N-(3-tert-butyl-1H-indol-6-yl)-1H-quinoline-3-carboxamide] | < 10 | ++ (between 25% to 100%)
32 | CC1CCN(c2ccc(NC(=O)c3c[nH]c4ccccc4c3=O)c(C(F)(F)F)c2)C1 (stereo not drawn) [Compound 555, N-[4-(3-methylpyrrolidin-1-yl)-2-(trifluoromethyl)phenyl]-4-oxo-1H-quinoline-3-carboxamide] | < 10 | ++ (between 25% to 100%)

Reference: patent US8614327B2 (Vertex Pharmaceuticals Incorporated, priority 2004, dated 2013)
